Assay results reported in PubChem BioAssay (NCI).
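How tested: cells in 96-well plates exposed to compound for 48 hours at five concentrations. TGI is the concentration that stops growth completely.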

Assays:
Test in all cases: inhibition of tumour cell growth, NCI panel, 48 h
UACC-257 melanoma = test system: UACC-257 melanoma
OVCAR-5 ovarian = test system: OVCAR-5 ovarian
IGROV1 ovarian = test system: IGROV1 ovarian
SNB-75 CNS = test system: SNB-75 CNS
HCC-2998 colon = test system: HCC-2998 colon
CCRF-CEM leukemia = test system: CCRF-CEM leukemia
SF-539 CNS = test system: SF-539 CNS
A549 NSCLC = test system: A549 NSCLC
A498 renal = test system: A498 renal
SK-MEL-28 melanoma = test system: SK-MEL-28 melanoma
MOLT-4 leukemia = test system: MOLT-4 leukemia
OVCAR-3 ovarian = test system: OVCAR-3 ovarian
MALME-3M melanoma = test system: MALME-3M melanoma
PC-3 prostate = test system: PC-3 prostate
NCI-H460 lung = test system: NCI-H460 lung
HS 578T breast = test system: HS 578T breast
SR leukemia = test system: SR leukemia
786-0 renal = test system: 786-0 renal
OVCAR-4 ovarian = test system: OVCAR-4 ovarian
MDA-N = test system: MDA-N
U251 CNS = test system: U251 CNS
NCI/ADR-RES ovarian = test system: NCI/ADR-RES ovarian
RXF 393 renal = test system: RXF 393 renal
HOP-62 NSCLC = test system: HOP-62 NSCLC
SF-268 CNS = test system: SF-268 CNS
COLO 205 colon = test system: COLO 205 colon
K-562 leukemia = test system: K-562 leukemia
LOX IMVI melanoma = test system: LOX IMVI melanoma
HOP-92 NSCLC = test system: HOP-92 NSCLC
HCT-15 colon = test system: HCT-15 colon
M14 melanoma = test system: M14 melanoma
MDA-MB-435 = test system: MDA-MB-435
UACC-62 melanoma = test system: UACC-62 melanoma
SK-MEL-2 melanoma = test system: SK-MEL-2 melanoma
ACHN renal = test system: ACHN renal
HT29 colon = test system: HT29 colon
KM12 colon = test system: KM12 colon
OVCAR-8 ovarian = test system: OVCAR-8 ovarian
NCI-H522 lung = test system: NCI-H522 lung
EKVX NSCLC = test system: EKVX NSCLC
SK-MEL-5 melanoma = test system: SK-MEL-5 melanoma
BT-549 breast = test system: BT-549 breast
SF-295 CNS = test system: SF-295 CNS
NCI-H226 lung = test system: NCI-H226 lung
DU-145 prostate = test system: DU-145 prostate
MDA-MB-231 breast = test system: MDA-MB-231 breast
UO-31 renal = test system: UO-31 renal
SNB-19 CNS = test system: SNB-19 CNS
NCI-H23 lung = test system: NCI-H23 lung
TK-10 renal = test system: TK-10 renal
SN12C renal = test system: SN12C renal
RPMI-8226 leukemia = test system: RPMI-8226 leukemia
MCF7 breast = test system: MCF7 breast
T-47D breast = test system: T-47D breast
SW-620 colon = test system: SW-620 colon
CAKI-1 renal = test system: CAKI-1 renal
HCT-116 colon = test system: HCT-116 colon
SK-OV-3 ovarian = test system: SK-OV-3 ovarian

Compound O=C(O)c1cccc([As]=[As]c2cccc(C(=O)O)c2)c1 (stereo not drawn) has a TGI (UACC-257 melanoma) greater than 100 µM, a TGI (OVCAR-5 ovarian) of 53.8 µM and a TGI (IGROV1 ovarian) greater than 100 µM. The TGI (SNB-75 CNS) was greater than 100 µM, the TGI (HCC-2998 colon) was greater than 100 µM and the TGI (CCRF-CEM leukemia) was 79 µM. For the same compound, the TGI (SF-539 CNS) was 39.1 µM, the TGI (A549 NSCLC) was greater than 100 µM and the TGI (A498 renal) was 75.7 µM. It also gave a TGI (SK-MEL-28 melanoma) greater than 100 µM, a TGI (MOLT-4 leukemia) of 95.1 µM and a TGI (OVCAR-3 ovarian) greater than 100 µM. For the same compound, the TGI (MALME-3M melanoma) was 43.9 µM, the TGI (PC-3 prostate) was 36.7 µM and the TGI (NCI-H460 lung) was greater than 100 µM. The TGI (HS 578T breast) was 90.8 µM, the TGI (SR leukemia) was 89.5 µM and the TGI (786-0 renal) was 71.1 µM. The TGI (OVCAR-4 ovarian) was greater than 100 µM, the TGI (MDA-N) was greater than 100 µM and the TGI (U251 CNS) was 35.5 µM. It also gave a TGI (NCI/ADR-RES ovarian) greater than 100 µM, a TGI (RXF 393 renal) of 81.8 µM and a TGI (HOP-62 NSCLC) greater than 100 µM. For the same compound, the TGI (SF-268 CNS) was 72.7 µM, the TGI (COLO 205 colon) was greater than 100 µM and the TGI (K-562 leukemia) was greater than 100 µM. For the same compound, the TGI (LOX IMVI melanoma) was 69.6 µM, the TGI (HOP-92 NSCLC) was 37.4 µM and the TGI (HCT-15 colon) was greater than 100 µM. For the same compound, the TGI (M14 melanoma) was greater than 100 µM, the TGI (MDA-MB-435) was greater than 100 µM and the TGI (UACC-62 melanoma) was greater than 100 µM. For the same compound, the TGI (SK-MEL-2 melanoma) was 55.6 µM, the TGI (ACHN renal) was greater than 100 µM and the TGI (HT29 colon) was greater than 100 µM. For the same compound, the TGI (KM12 colon) was greater than 100 µM, the TGI (OVCAR-8 ovarian) was greater than 100 µM and the TGI (NCI-H522 lung) was 35.7 µM. It also gave a TGI (EKVX NSCLC) greater than 100 µM, a TGI (SK-MEL-5 melanoma) of 96.1 µM and a TGI (BT-549 breast) greater than 100 µM. For the same compound, the TGI (SF-295 CNS) was greater than 100 µM, the TGI (NCI-H226 lung) was greater than 100 µM and the TGI (DU-145 prostate) was greater than 100 µM. The TGI (MDA-MB-231 breast) was 39.9 µM, the TGI (UO-31 renal) was greater than 100 µM and the TGI (SNB-19 CNS) was greater than 100 µM. It also gave a TGI (NCI-H23 lung) greater than 100 µM, a TGI (TK-10 renal) of 57.1 µM and a TGI (SN12C renal) greater than 100 µM. The TGI (RPMI-8226 leukemia) was 59.5 µM, the TGI (MCF7 breast) was greater than 100 µM and the TGI (T-47D breast) was greater than 100 µM. The TGI (SW-620 colon) was greater than 100 µM, the TGI (CAKI-1 renal) was 37.1 µM and the TGI (HCT-116 colon) was greater than 100 µM.

For O=C(O)c1ccc2c(O)c(O)ccc2c1, the TGI (UACC-257 melanoma) was 50.5 µM, the TGI (OVCAR-5 ovarian) was 57.5 µM and the TGI (IGROV1 ovarian) was 38.2 µM. It also gave a TGI (SNB-75 CNS) of 22.4 µM, a TGI (HCC-2998 colon) greater than 60.9 µM and a TGI (CCRF-CEM leukemia) greater than 31.6 µM. The TGI (SF-539 CNS) was greater than 100 µM, the TGI (A549 NSCLC) was greater than 93.8 µM and the TGI (A498 renal) was 97.9 µM. For the same compound, the TGI (SK-MEL-28 melanoma) was greater than 100 µM, the TGI (MOLT-4 leukemia) was 18 µM and the TGI (OVCAR-3 ovarian) was 34.5 µM. It also gave a TGI (MALME-3M melanoma) greater than 74.6 µM, a TGI (PC-3 prostate) greater than 78.8 µM and a TGI (HS 578T breast) of 70.9 µM. It also gave a TGI (SR leukemia) of 13.8 µM, a TGI (786-0 renal) of 43.9 µM and a TGI (OVCAR-4 ovarian) of 54.1 µM. For the same compound, the TGI (MDA-N) was 38.5 µM, the TGI (U251 CNS) was 45.6 µM and the TGI (NCI/ADR-RES ovarian) was 55.3 µM. The TGI (RXF 393 renal) was 42.5 µM, the TGI (HOP-62 NSCLC) was 41 µM and the TGI (SF-268 CNS) was 22.3 µM. For the same compound, the TGI (COLO 205 colon) was greater than 64 µM, the TGI (K-562 leukemia) was greater than 63.6 µM and the TGI (LOX IMVI melanoma) was 57 µM. It also gave a TGI (HOP-92 NSCLC) greater than 84.3 µM, a TGI (HCT-15 colon) of 55 µM and a TGI (M14 melanoma) of 61.8 µM. For the same compound, the TGI (MDA-MB-435) was 34.7 µM, the TGI (SK-MEL-2 melanoma) was 67.3 µM and the TGI (ACHN renal) was 29.3 µM. For the same compound, the TGI (HT29 colon) was 21.2 µM, the TGI (KM12 colon) was 31.3 µM and the TGI (OVCAR-8 ovarian) was 47.9 µM. For the same compound, the TGI (NCI-H522 lung) was 36.4 µM, the TGI (EKVX NSCLC) was 47.7 µM and the TGI (SK-MEL-5 melanoma) was 35.6 µM. The TGI (BT-549 breast) was 40.8 µM, the TGI (SF-295 CNS) was 33.5 µM and the TGI (NCI-H226 lung) was 44.3 µM. It also gave a TGI (DU-145 prostate) greater than 100 µM, a TGI (MDA-MB-231 breast) of 68.5 µM and a TGI (UO-31 renal) of 41.4 µM. For the same compound, the TGI (SNB-19 CNS) was 36.1 µM, the TGI (NCI-H23 lung) was 50.5 µM and the TGI (TK-10 renal) was 18.6 µM. For the same compound, the TGI (SN12C renal) was 27.7 µM, the TGI (RPMI-8226 leukemia) was 40.2 µM and the TGI (SK-OV-3 ovarian) was greater than 72.5 µM. For the same compound, the TGI (MCF7 breast) was greater than 100 µM, the TGI (T-47D breast) was greater than 100 µM and the TGI (SW-620 colon) was greater than 100 µM. For the same compound, the TGI (CAKI-1 renal) was 48.2 µM and the TGI (HCT-116 colon) was 79.7 µM.
